From US5736523A, “Antineoplastic heteronapthoquinones” (Biochem Pharma Inc., priority 1995, dated 1998)
Read-outs that look alike come from different tables or passages of the source.

Tests used:
Assay type in all cases: cell-based, human
[1] = system: SKOV3 (Ovarian adenocarcinoma); assay: In vitro cytotoxicity, microculture tetrazolium (MTT) assay, SKOV3; conditions: read-out: IC50
Method: (§1) In Vitro Cytotoxicity--Microculture Tetrazolium Assay
(§2) The microculture tetrazolium assay was used to test in vitro cytotoxicity. This assay is described in Plumb, J. A. et al., 1989 Cancer Research 49, 4435-4440, which is herein incorporated by reference. The cytotoxicity of compounds towards tumor cells is measured in vitro using the assay. This assay method is based upon the ability of live, but not dead cells to reduce the yellow water soluble dye 3-(4;5-dimethylthiazol-2-yl)-2,5-diphenyltetrazolium bromide (MTT) to its water insoluble purple formazan product.
(§3) Human Tumor Cell lines, used were:
SKOV3 (Ovarian adenocarcinoma)--provided by Dr. V. Ling,
(§4) The cells were maintained in exponential growth in culture in minimal essential media (MEM) supplemented with non-essential amino acids, and containing 15% (v/v) fetal bovine serum, 5 mM L-glutamine, 1 mM sodium pyruvate, and 0.1 U/ml insulin. All cell lines were grown at 37° C. in an atmosphere of 5% CO2 in air.
(§5) Test compounds: 20 mM in DMSO and diluted to a final concentration of 200 μM in culture medium before use.
(§6) The following is the generic description of the assay method. It should be noted that although the conditions described work well with the cells listed above, the initial plating density and the MTT concentration used should be verified for each new cell line used to test compounds.
(§7) For each assay, doxorubicin is included as an inter-assay standard. This allows us to monitor the behaviour of the assay in general, and in particular, to check that the SKVLB line has maintained its resistant phenotype.
(§8) The plate layout is done in the following manner: The assays are carried out in 96-well (8 well×12 well) microtiter plates. Serial dilutions of the compound are tested along the length of the plate. A 1:3 serial dilution of compound in culture medium covers a concentration range from 100 μM to 1.7 nM. Each concentration of compound is tested in quadruplet, allowing two compounds to be tested per plate. Wells containing no cells (blank) and cells with no test compound (control) are included on each plate.
(§9) Cells are plated out in 100 μl of culture medium in the microtiter plates at a density of around 1,500-4,000 cells per well. The plates are incubated overnight to allow the cells to become adherent after which the test compound is added (100 μl of appropriate dilution per well). The cells are incubated with test compound at 37° C. for 48 h after which the compound is replaced with fresh medium. After a further 48 h incubation at 37° C., 50 μl of MTT solution (2 mg/ml) is added to each well. The plates are incubated in the dark for 4 h at 37° C. after which the medium is removed. The MTT formazan product is extracted from the cells by the addition of 200 μl DMSO followed by 50 μl of Sorensen's buffer. The plates are shaken briefly and the absorbance at 570 nm is read using a Molecular Devices UV max plate reader. Curves are fit to the MTT assay data using a four parameter logistic equation, and the data are normalized to fit a 0% to 100% survival scale.

[2] = system: SKVLB (Ovarian; multidrug resistant); assay: In vitro cytotoxicity, microculture tetrazolium (MTT) assay, SKVLB; conditions: for IC50: SKVLB, multidrug resistant, read-out: IC50; for VLB/OV3: ratio SKVLB / SKOV3
Outline: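 Multidrug-resistant ovarian SKVLB cells exposed 48 h at 37 °C to 1:3 serial dilutions (100 μM–1.7 nM), then 48 h in fresh medium. MTT reduction read at 570 nm after DMSO extraction; four-parameter logistic fit normalized to 0–100% survival.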

[3] = system: T47D (Ductal carcinoma of breast); assay: In vitro cytotoxicity, microculture tetrazolium (MTT) assay, T47D; conditions: read-out: IC50
Method: as §1, §2, §3
T47D (Ductal carcinoma of breast)--ATCC catalog #HTB-133.
as §4, §5, §6, §7, §8, §9

Lox (Melanoma) = assay: In vitro cytotoxicity, microculture tetrazolium (MTT) assay, Lox; conditions: read-out: IC50
Method: as §1, §2, §3
Lox (Melanoma)--Southern Research Institute.
as §4, §5, §6, §7, §8, §9

[4] = system: HT 29 (Colon adenocarcinoma); assay: In vitro cytotoxicity, microculture tetrazolium (MTT) assay, HT 29; conditions: read-out: IC50
Method: as §1, §2, §3
HT 29 (Colon adenocarcinoma) ATCC catalog #HTB-38.
as §4, §5, §6, §7, §8, §9

| Molecule | IC50 ([1]; Homo sapiens, SK-OV-3, SKOV3) [µM] | IC50 ([2]; Homo sapiens) [µM] | VLB/OV3 [2] | IC50 ([3]; Homo sapiens) [µM] | IC50 (Lox (Melanoma); Homo sapiens) [µM] | IC50 ([4]; Homo sapiens, HT-29, HT29) [µM] | IC50 ([1]; SKOV3) [µM] | IC50 [2] [µM] | IC50 [3] [µM] | IC50 (Lox (Melanoma)) [µM] | IC50 ([4]; HT29) [µM] |
| --- | --- | --- | --- | --- | --- | --- | --- | --- | --- | --- | --- |
| C=CC[C@@H]1CC2=C(C(=O)c3ccccc3C2=O)[C@@H](O[C@H]2C[C@H](NC(=O)C(F)(F)F)[C@H](O)[C@H](C)O2)O1 (mixture of isomers) [BCH2031, (1'S,1S,3S) and (1'S,1-R,3-R)-3-([2',3',6'-trideoxy-3'-trifluoroacetamido-4'-hydroxy-L-lyhohexopyranose]-5,10-dioxo-3,4,5,10-tetrahydronaphtho-[2,3-c]-pyran-3-yl)-propene] | 6 | 18 | 3 | 16 | 2.8 | 8.5 | – | – | – | – | – |
| CC(=O)[C@@H]1CC2=C(C(=O)c3ccccc3C2=O)[C@H](OC2CCC(NC(=O)N(CCCl)N=O)CC2)O1 (mixture of isomers) [BCH2114, (1R,3S) and (1S,3R)-3-aceto-5,10-dioxo-1 (4-chloroethylnitrosoureido cyclohexyl-oxy)-3,4,5,10-tetrahydro-1H-naphtho-(2,3-c)-pyran] | – | – | 4.32 | – | – | – | 0.472 | 2.04 | 0.655 | 0.373 | 0.257 |
| CC(=O)C1CC2=C(C(=O)c3ccccc3C2=O)C(OC2CC(NC(=O)C(F)(F)F)C(NC(=O)C(F)(F)F)C(C)O2)O1 [BCH2104, (1R,3S,1'S) and (1S,3R,1'S)-Methyl-(1-[2',3',4',6'-tetradeoxy-3',4'-bis-trifluoroacetamido-L-arabinohexopyranose]-5,10-dioxo-3,4,5,10-tetrahydronaphthaleno-[2,3-c]pyran-3-yl) ketone] | – | – | 5.05 | – | – | – | 0.21 | 1.1 | 0.613 | 0.24 | 0.171 |
| CCC1CC2=C(C(=O)c3ccccc3C2=O)C(OC2CC(OC(C)=O)C(OC(C)=O)C(C)O2)O1 (mixture of isomers) [BCH1607, (1'S,1S,3S) and (1'S,1R,3R)-5,10-dioxo-3-ethyl-1-(2',3',4',6'-tetradeoxy-3',4'-diacetoxy-L-lyxohexo-pyranose)-3,4,5,10-tetrahydro-1H-naphtho [2,3-C] pyran] | – | – | 2.73 | – | – | – | 7.26 | 19.8 | 14.7 | 8.97 | 21.6 |
| C=CC[C@H]1CC2=C(C(=O)c3ccccc3C2=O)[C@@H](OC2C[C@H](NC(=O)C(F)(F)F)[C@H](O)[C@H](C)O2)O1 (stereo partly drawn) [BCH1649, (1'-S,1-R,3-S)-3-([2',3',6'-trideoxy-3'-trifluoroacetamido-4'-hydroxy-L-lyhohexopyranose]-5,10-dioxo-3,4,5,10-tetrahydronaphtho-[2,3-c]-pyran-3-yl)-propene] | – | – | 4.17 | – | – | – | 0.11 | 0.459 | 0.38 | 0.217 | 0.331 |
| CC(=O)[C@@H]1CC2=C(C(=O)c3ccccc3C2=O)[C@@H](O[C@@H]2O[C@H](CO)[C@@H](O)[C@H](O)[C@H]2NC(=O)N(CCCl)N=O)O1 [BCH2038, (1'R,1R,3S)-3-aceto-5,10-dioxo-1-(2-deoxy-2-chloroethyl-nitrosoureido-D-glucopyranose)-3,4,5,10-tetrahydro-1H-naphtho-[2,3-C] pyran] | – | – | 4.16 | – | – | – | 0.832 | 3.5 | 2 | 0.173 | 2 |
| (1S,2'S,3R) and (1R,2'S,3S)-methyl-(1-[O-prolinol]-3,4,5,12-tetrahydronaphtho-[2,3-C] pyran-3-yl) ketone hydrochloride salt [BCH1658] | – | – | 6.31 | – | – | – | 0.233 | 1.47 | 0.494 | 0.316 | 0.661 |
| CC(=O)OC1C(C)OC(OC2OC(C(C)=O)CC3=C2C(=O)c2ccccc2C3=O)C(I)C1OC(C)=O (mixture of isomers) [BCH2065, (1'S,1R,1S) and (1'S,1S,3R)-methyl-(1-[2',6'-dideoxy-3',4'-diacetoxy-2'-iodo-L-arabino-hexopyranose]-5,10-dioxo-3,4,5,10-tetrahydronaphtho-[2,3-c]-pyran-3-yl) ketone] | – | – | 4 | – | – | – | 1.54 | 6.1 | 2.2 | 1.4 | 3.42 |
| CC(NC(=O)C(F)(F)F)[C@H]1CC2=C(C(=O)c3ccccc3C2=O)[C@H](O[C@H]2C[C@H](O)[C@H](O)[C@H](C)O2)O1 (stereo partly drawn) [BCH2018, (1'S,1S,3R)-3-(trifluoroacetamidoethyl)-5,10-dioxo-1-(2',3',6'-trideoxy-3',4'-dihydroxy-L-lyxohexopyranose)-3,4,5,10-tetrahydro-1H-naphtho-[2,3-c]-pyran] | 3.11 | 17.7 | 5.69 | 8.56 | 2.38 | 14.2 | – | – | – | – | – |
| C=CCC1CC2=C(C(=O)c3ccccc3C2=O)C(OC2CC(NC(=O)C(F)(F)F)C(O)C(C)O2)O1 (stereo not drawn) [BCH1648] | – | – | 6.07 | – | – | – | 0.0519 | 0.315 | 0.36 | 0.138 | 0.309 |
| CC(=O)C1CC2=C(C(=O)c3ccccc3C2=O)C(OC2CC(NC(=O)C(F)(F)F)C(NC(=O)C(F)(F)F)C(C)O2)O1 [BCH2102, (1R,3S,1'S) and (1S,3R,1'S)-Methyl-(1-[2',3',4',6'-tetradeoxy-3',4'-bis-trifluoroacetamido-L-arabinohexopyranose]-5,10-dioxo-3,4,5,10-tetrahydronaphthaleno-[2,3-c]pyran-3-yl) ketone] | – | – | 5.65 | – | – | – | 0.13 | 0.723 | 0.3 | 0.186 | 0.15 |
| CC(=O)C1CC2=C(C(=O)c3ccccc3C2=O)C(OC2CC(NC(=O)C(F)(F)F)C(O)C(C)O2)O1 (stereo not drawn) [BCH2144] | – | – | 0.75 | – | – | – | 21.4 | 16.1 | 7.22 | 3.28 | 5.93 |
| CC(=O)C1CC2=C(C(=O)c3ccccc3C2=O)C(OC[C@@H]2CCCN2C(=O)OC(C)(C)C)O1 (mixture of isomers) [BCH2067, (1S,2'S,3R) and (1R,2'S,3S)-methyl-(1-[O-N-BOC-prolinol]-5,10-dioxo-3,4,5,10-tetrahydro-1H-naphtho [2,3-C]pyran-3-yl) ketone] | – | – | 2 | – | – | – | 1.2 | 2.24 | 0.54 | 1.1 | 0.323 |
| CC(=NO)[C@@H]1CC2=C(C(=O)c3ccccc3C2=O)[C@@H](O[C@H]2C[C@H](NC(=O)C(F)(F)F)[C@H](O)[C@H](C)O2)O1 [BCH2115, (1'S,1R,3S)-3 (oximoethyl)-5,10-dioxo-1 (2,3,6-trideoxy-3-trifluoroacetamido-L-lyxohexopyranose)-3,4,5,10-tetrahydro-1H-naphtho-(2,3-c)-pyran] | 2.3 | > 100 | > 50 | 5.3 | 4 | 5.6 | – | – | – | – | – |
| CC(=O)C1CC2=C(C(=O)c3ccccc3C2=O)C(O[C@H]2C[C@H](O)[C@H](O)[C@H](C)O2)O1 (mixture of isomers) [BCH2117, (1'S,1S,3R) and (1'S,1R,3S)-methyl-(1-[dideoxy-2',6'-dihydroxy-3',4'-L-lyxohexopyranose]-5,10-dioxo-3,4,5,10-tetrahydronaphtho-[2,3-c]-pyran-3-yl) ketone] | – | – | 35.13 | – | – | – | 0.0095 | 0.332 | 0.0374 | 0.073 | 0.03 |
